Laboratory results from ChEMBL document CHEMBL5257059, “Pyridine-Based 1,2,4-Triazolo-Tethered Indole Conjugates Potentially Affecting TNKS and PI3K in Colorectal Cancer” (ACS Med Chem Lett, 2023).

Legend:
Format in all cases: functional, cell-based
Caco-2 = experiment: Antiproliferative activity against human Caco-2 cells assessed as inhibition of cell growth incubated for 24 hrs by MTT assay; conditions: Caco-2, 24 h
DLD-1 = experiment: Antiproliferative activity against human DLD-1 cells assessed as inhibition of cell growth incubated for 24 hrs by MTT assay; conditions: DLD-1, 24 h
A 172 = experiment: Antiproliferative activity against human A-172 cells assessed as inhibition of cell growth incubated for 24 hrs by MTT assay; conditions: A 172, 24 h
A549 = experiment: Antiproliferative activity against human A549 cells assessed as inhibition of cell growth incubated for 24 hrs by MTT assay; conditions: A549, 24 h
[1] = Antiproliferative activity against human Tera-1 cells assessed as inhibition of cell growth incubated for 24 hrs by MTT assay; conditions: Tera-1, 24 h
HT-29 = experiment: Antiproliferative activity against human HT-29 cells assessed as inhibition of cell growth incubated for 24 hrs by MTT assay; conditions: HT-29, 24 h

| Structure (SMILES) | IC50 (Caco-2) [µM] | IC50 (DLD-1) [µM] | IC50 (A 172) [µM] | IC50 (A549) [µM] | IC50 [1] [µM] | IC50 (HT-29) [µM] |
| --- | --- | --- | --- | --- | --- | --- |
| Brc1ccccc1-n1c(SCCc2c[nH]c3ccccc23)nnc1-c1ccncc1 | > 30 | > 30 | > 30 | 4 | > 30 | > 30 |
| C=CCn1c(SCCc2c[nH]c3ccccc23)nnc1-c1ccncc1 | > 30 | > 30 | > 30 | > 30 | > 30 | > 30 |
| CCCCn1c(SCCc2c[nH]c3ccccc23)nnc1-c1ccncc1 | > 30 | > 30 | > 30 | > 30 | > 30 | > 30 |
| Clc1ccc(-n2c(SCCc3c[nH]c4ccccc34)nnc2-c2ccncc2)cc1 | 25 | 21.8 | 23.3 | 18.7 | > 30 | > 30 |
| Cc1cccc(C)c1-n1c(SCCc2c[nH]c3ccccc23)nnc1-c1ccncc1 | > 30 | > 30 | > 30 | > 30 | > 30 | > 30 |
| Clc1cccc(-n2c(SCCc3c[nH]c4ccccc34)nnc2-c2ccncc2)c1 | 13.5 | 11 | > 30 | > 30 | > 30 | 7.3 |
| Brc1cccc(-n2c(SCCc3c[nH]c4ccccc34)nnc2-c2ccncc2)c1 | 10.5 | 15.3 | 14.7 | 14.5 | 24.6 | 12.2 |
| CCCn1c(SCCc2c[nH]c3ccccc23)nnc1-c1ccncc1 | > 30 | > 30 | > 30 | > 30 | > 30 | > 30 |
| Fc1ccc(-n2c(SCCc3c[nH]c4ccccc34)nnc2-c2ccncc2)cc1 | 10.3 | 10.6 | > 30 | 8.09 | > 30 | 5.8 |
| c1ccc(Cn2c(SCCc3c[nH]c4ccccc34)nnc2-c2ccncc2)cc1 | > 30 | 25.8 | 8.1 | 13.9 | 10.7 | > 30 |
| Cc1ccccc1-n1c(SCCc2c[nH]c3ccccc23)nnc1-c1ccncc1 | > 30 | > 30 | > 30 | > 30 | > 30 | > 30 |
| O=c1[nH]cc(F)c(=O)[nH]1 [FLUOROURACIL] |  |  |  |  |  | 5.31 |
| O=[N+]([O-])c1ccc(-n2c(SCCc3c[nH]c4ccccc34)nnc2-c2ccncc2)cc1 | > 30 | > 30 | 16.9 | > 30 | > 30 | > 30 |
| Cc1ccc(-n2c(SCCc3c[nH]c4ccccc34)nnc2-c2ccncc2)cc1 | 17.8 | 16.5 | 20.3 | 13.5 | > 30 | > 30 |
| c1ccc(-n2c(SCCc3c[nH]c4ccccc34)nnc2-c2ccncc2)cc1 | > 30 | 19 | 26.8 | > 30 | > 30 | > 30 |
